Values after ≈ are worked out from the molar mass of the structure shown. Where two headings read alike, the source gives them in different places.
Tests used:
[1] = tested on: HL-60 cells; assay: MTT cytotoxicity assay; assay type: cell-based, human; conditions: read-out: IC50 ± SD
Experimental: (§1) The cytotoxicities for studied compounds were evaluated against leukemia cells (HL-60), as well as ovarian (SKOV-3), prostate (PC-3), and breast (MCF-7) cancer cell lines. The potential selectivity of these compounds towards cancer cells was assessed by determination of their cytotoxicities towards breast non-cancerous cells (MCF-10A). For comparison, cisplatin was added to the cytotoxicity assays.
(§2) Bacterial strains and cell lines were obtained from the American Type Culture Collection (ATCC).[59] […] Antimicrobial activity was tested in Müeller Hinton (MH) II broth (Becton Dickinson). For anticancer activity assay, the following reagents from Merk were used: 3-(4,5-dimethylthiazol-2-yl)-2,5-diphenyltetrazolium bromide (MTT), sodium dodecyl sulfate (SDS) and HCl. The solubilized formazan product was spectrophotometrically quantified in a Power Wave XS (Bio Tek, Winooski, VT, USA) microplate reader. The HL-60 and PC-3 cells were grown in RPMI-1640 medium with stable glutamine (Biowest) supplemented with 10% (v/v) of heat-inactivated fetal bovine serum (FBS, Biowest) and 1% (v/v) of antibiotic–antimycotic solution (Biowest). The SKOV-3 cells were grown in McCoy's 5A medium with L-glutamine (Biowest) supplemented with 10% (v/v) heat-inactivated FBS, and 1% (v/v) antibiotic–antimycotic solution. The MCF-7 cells were grown in Eagle's MEM (Minimal Essential Medium) medium with stable glutamine (Biowest), supplemented with 10% (v/v) heat-inactivated FBS 1% (v/v) MEM non-essential amino acids (Biowest), 1% (v/v) antibiotic–antimycotic solution, and 1 mM sodium pyruvate (Merck). The MCF-10A cells were grown in Ham's F-12K (Kaighn's) Medium with stable glutamine (Gibco) supplemented with 5% (v/v) heat-inactivated FBS, 1% (v/v) MEM non-essential amino acids, 1% (v/v) antibiotic–antimycotic solution, 5 μg mL^−1 insulin, 0.04 μg mL^−1 hydrocortisone (Merck), and 15 ng mL^−1 human Epidermal Growth Factor (hEGF, PeproTech).
(§3) The cells were cultured in 96-well plates and incubated with the tested compound for 24 h and 48 h. All experiments were performed in exponentially growing cultures. The 0.03 M solutions of the compounds in DMSO were appropriately diluted using culture media. The maximal final concentration of DMSO in each well was 0.1%. The cytotoxicity of the compounds was measured by determining cell viability with a colorimetric test based on 3-(4,5-dimethylthiazol-2-yl)-2,5-diphenyltetrazolium bromide (MTT). MTT stock solution was added to each well to a final concentration of 0.5 mg mL^−1 and incubated for 4 h at 37 °C; following formazan crystals were dissolved by the addition of sodium dodecyl sulfate (SDS) solution (10% SDS in 0.001 M HCl). MTT and SDS were added directly to the cell culture. The compound's IC50 values (concentration required to reduce the viability of cells by 50% compared with the control cells) were calculated from the data obtained with the MTT assay.

[2] = tested on: SKOV-3 cells; assay: MTT cytotoxicity assay; assay type: cell-based, human; conditions: read-out: IC50 ± SD
Experimental: as §1, §2, §3

[3] = tested on: PC-3 cells; assay: MTT cytotoxicity assay; assay type: cell-based, human; conditions: read-out: IC50 ± SD
Experimental: as §1, §2, §3

[4] = tested on: MCF-7 cells; assay: MTT cytotoxicity assay; assay type: cell-based, human; conditions: read-out: IC50 ± SD
Experimental: as §1, §2, §3

[5] = tested on: E. faecalis ATCC29212; assay: Broth microdilution MIC/MBC (ISO 20776-1); assay type: cell-based, Enterococcus faecalis
Experimental: as §2
(§4) The in vitro antibacterial activity was determined according to ISO 20776-1.[88] Among the tested microorganisms were Gram-negative rods, E. coli ATCC25922 and P. aeruginosa ATCC27853, and Gram-positive cocci, S. aureus ATCC29213 and E. faecalis ATCC29212. The selected bacterial species represented the most common etiologic agents of human infections and are used for quality control of antimicrobial susceptibility testing.[89] The test procedure included the determination of MICs and MBCs of complexes and their free ligands. MIC and MBC determinations of ciprofloxacin, as the reference antibiotic, were also performed. All compounds were dissolved in DMSO to reach the maximum 512 mg L^−1 concentration. […] The assay consisted of preparing 2-fold dilutions of the substances in a liquid growth medium MH II and inoculating them with a standardized suspension of microorganisms at a McFarland density of 0.5 (≈10^8 CFU mL^−1). The culture plates were incubated at 35 °C for 24 h. The lowest concentration of the compound inhibiting visible bacterial growth was specified as MIC, and the concentration that reduced bacterial growth by >99.99% after counting live bacteria on the plates compared to the positive control was defined as MBC.

[6] = tested on: P. aeruginosa ATCC27853; assay: Broth microdilution MIC/MBC (ISO 20776-1); assay type: cell-based, Pseudomonas aeruginosa
Experimental: as §2, §4

[7] = tested on: MCF-10A cells; assay: MTT cytotoxicity assay
Experimental: as §1, §2, §3

[8] = tested on: E. coli ATCC25922; assay: Broth microdilution MIC/MBC (ISO 20776-1); assay type: cell-based, Escherichia coli
Experimental: as §2, §4

[9] = tested on: S. aureus ATCC29213; assay: Broth microdilution MIC/MBC (ISO 20776-1); assay type: cell-based, Staphylococcus aureus
Experimental: as §2, §4

[10] = Stability of the complexes in DMSO by NMR (exchange of pyrazole ligand with DMSO); assay type: physicochemical
Experimental: In 3, after two days, an equilibrium between the Hdmpz and DMSO complexes stabilizes at 77% to 23% ratio (Fig. S34 ^†). Complex 3 can be recovered from the mixture by DMSO evaporation and the complex with water is even weaker. In the case of 3-phenylpyrazole in 8, the complex amount drops to 50% immediately after dissolving and after 24 h reaches ratio of 39% to 61% (Fig. S35 ^†).
The chemicals were purchased from Sigma-Aldrich and only 5-chloro-8-hydroxyquinoline from TCI. Their purity was 98 or 99% (for 3-phenylpyrazole – 97%). Anhydrous solvents with HPLC grade (≥99.9%) were applied. All chemicals were used without further purification. Elemental analysis was performed on an Elementar Vario EL III analyzer. UV-Vis spectra of methanol solutions were recorded in the 200–900 nm range with a Jasco V-750 spectrometer. Infrared absorption spectra in the 400–4000 cm^−1 range were recorded with a Thermo Scientific Nicolet iS10 FT-IR spectrometer using KBr pellets. ^1H and ^13C NMR spectra of DMSO-d6 or CDCl3 solutions were recorded at 25 °C on a Varian VNMRS-500 or Varian 400MR spectrometer operated at 499.8 and 400 MHz, respectively. The NMR spectra were referenced to the internal reference of tetramethylsilane (TMS).

[11] = tested on: solid tumor cells (SKOV-3, PC-3, MCF-7); assay: MTT cytotoxicity assay, solid tumor cell lines taken together; assay type: cell-based; conditions: Homo sapiens, read-out: IC50 against solid tumor cells
Experimental: For comparison, cisplatin was added to the cytotoxicity assays.
All experiments were performed in exponentially growing cultures.

[12] = tested on: human cervical adenocarcinoma (HeLa) cells; conditions: cited from earlier work
[13] = E. faecalis ATCC29212, >99.99% reduction of growth
[14] = E. faecalis ATCC29212, MH II broth, 35 °C, 24 h
[15] = P. aeruginosa ATCC27853, >99.99% reduction of growth
[16] = P. aeruginosa ATCC27853, MH II broth, 35 °C, 24 h
[17] = read-out: IC50 ± SD, MCF-10A (non-cancerous), 24 h, MTT, * precipitation of the complex
[18] = read-out: IC50 ± SD, MCF-10A (non-cancerous), 48 h, MTT, * precipitation of the complex
[19] = E. coli ATCC25922, >99.99% reduction of growth
[20] = E. coli ATCC25922, MH II broth, 35 °C, 24 h
[21] = S. aureus ATCC29213, >99.99% reduction of growth
[22] = S. aureus ATCC29213, MH II broth, 35 °C, 24 h

SMILES | IC50 ([1]; HL-60, 24 h, MTT) [µM] | IC50 ([1]; HL-60, 48 h, MTT) [µM] | IC50 ([2]; SKOV-3, 24 h, MTT) [µM] | IC50 ([2]; SKOV-3, 48 h, MTT) [µM] | IC50 ([3]; PC-3, 24 h, MTT) [µM] | IC50 ([3]; PC-3, 48 h, MTT) [µM] | IC50 ([4]; MCF-7, 24 h, MTT) [µM] | IC50 ([4]; MCF-7, 48 h, MTT) [µM] | MBC [5, 13] [µg/mL] | MIC [5, 14] [µg/mL] | MBC [6, 15] | MIC [6, 16] | IC50 [7, 17] [µM] | IC50 [7, 18] [µM] | MBC [8, 19] | MIC [8, 20] | MBC [9, 21] | MIC [9, 22] | also measured
Cc1ccc2cccc([O][Re])c2n1.[C-]#[O+].[C-]#[O+].[C-]#[O+].c1ccc(-c2ccn[nH]2)cc1 [complex 8, [Re(CO)3(MeQ)HPhpz]] | 9 ± 1 | 8 ± 1 | > 100 | 41 ± 7 | 39 ± 5 | 31 ± 5 | 68 ± 4 | 53 ± 3 | > 512 | 32 | >512/>512 mg L^−1 | >512/>512 mg L^−1 | 36 ± 1 | 21 ± 4 | >512/>512 mg L^−1 | >512/>512 mg L^−1 | > 512 mg/L | 128 mg/L | share of the DMSO complex ([10]; after 24 h): 61%; share of the HPhpz complex ([10]; after 24 h): 39%; complex amount ([10]; immediately after dissolving): 50%
Cc1ccc2cccc(O)c2n1 [MeHQ, 2-methyl-8-hydroxyquinoline, reference compound] |  |  |  |  |  |  |  |  |  |  |  |  |  |  |  |  |  |  | IC50 ([1]; Homo sapiens, HL-60, 24 h): 27 ± 2 µM; IC50 ([1]; Homo sapiens, HL-60, 48 h): 18 ± 2 µM; IC50 ([2]; Homo sapiens, SK-OV-3, 24 h): > 100 µM; IC50 ([2]; Homo sapiens, SK-OV-3, 48 h): > 100 µM; IC50 ([3]; Homo sapiens, PC-3, 24 h): 62 ± 8 µM; IC50 ([3]; Homo sapiens, PC-3, 48 h): > 100 µM; IC50 ([4]; Homo sapiens, MCF7, 24 h): > 100 µM; IC50 ([4]; Homo sapiens, MCF7, 48 h): > 100 µM; MBC ([5]; Enterococcus faecalis, ATCC29212): 32 µg/mL (≈ 201 µM); MIC ([5]; Enterococcus faecalis, ATCC29212, 24 h): 32 µg/mL (≈ 201 µM); MBC ([6]; Pseudomonas aeruginosa, ATCC27853): > 512 µg/mL; MIC ([6]; Pseudomonas aeruginosa, ATCC27853, 24 h): 256 µg/mL (≈ 1610 µM); IC50 ([7]; Homo sapiens, MCF-10A, 24 h, read-out: IC50 ± SD): > 100 µM; IC50 ([7]; Homo sapiens, MCF-10A, 48 h, read-out: IC50 ± SD): > 100 µM; IC50 [11]: > 100 µM; MBC ([8]; Escherichia coli, ATCC25922): > 512 µg/mL; MIC ([8]; Escherichia coli, ATCC25922, 24 h): 32 µg/mL (≈ 201 µM); MBC ([9]; Staphylococcus aureus, ATCC29213): 128 mg/L (≈ 804 µM); MIC ([9]; Staphylococcus aureus, ATCC29213, 24 h): 32 mg/L (≈ 201 µM)
Cc1cc(C)[nH]n1.[C-]#[O+].[C-]#[O+].[C-]#[O+].[Re][O]c1cccc2cccnc12 [complex 3, [Re(CO)3(Q)Hdmpz]] | 7 ± 2 | 6 ± 1 | 32 ± 7 | 31 ± 7 | 14 ± 2 | 16 ± 2 | 19 ± 2 | 29 ± 5 | 512 | 128 | >512/>512 mg L^−1 | >512/>512 mg L^−1 | > 100 | > 100 | >512/>512 mg L^−1 | >512/>512 mg L^−1 | 512/>512 mg L^−1 | 512/>512 mg L^−1 | IC50 / activity on normal cells ([7]; MCF-10A, incubation time not given): no activity; IC50 ([7]; read-out: IC50 / activity on normal cells, MCF-10A, incubation time not given): > 100 µM; share of the DMSO complex at equilibrium ([10]; after two days): 23%; share of the Hdmpz complex at equilibrium with the DMSO complex ([10]; after two days): 77%
C1N2CN3CN1CP(C2)C3.[C-]#[O+].[C-]#[O+].[C-]#[O+].[Re][O]c1cccc2cccnc12 [[Re(CO)3(Q)(PTA)]] |  |  |  |  |  |  |  |  |  |  |  |  |  |  |  |  |  |  | cytotoxicity [12]: moderate activity

— paper PMC11152041, “Tricarbonyl rhenium(I) complexes with 8-hydroxyquinolines: structural, chemical, antibacterial, and anticancer characteristics” (RSC Advances, 2024)
